# Source: patent publication US10973815B2, “Delta opioid agonist mu opioid antagonist compositions and methods for treating Parkinsons disease” (priority 2016, dated 2021)
# Test system: MPTP-lesioned cynomolgus macaques
# Assay: Acute DPI-289 in combination with low-dose L-DOPA, versus high-dose L-DOPA, in MPTP-lesioned macaques with L-DOPA-induced dyskinesia
# Type: in vivo, Macaca fascicularis
# Excerpt: This study utilized female MPTP-lesioned cynomolgus macaques that have received chronic repeat-treatment with L-DOPA and manifested stable and reproducible dyskinesia, of choreic and dystonic nature, in response to subsequent L-DOPA-treatments. Eight cynomolgus monkeys (Macaca fascicularis, 7.6-13.1 years of age, 3.0-4.5 kg) were used in this study. In a prior experiment, for each individual animal a low and high dose of L-DOPA was established such that the low dose (LD1) provided modest anti-parkinsonian action (1-2 h) and elicited predominantly non-disabling dyskinesia, the high dose (LDh) provided the best anti-parkinsonian effect achievable but also elicited disabling dyskinesia and an anti-parkinsonian benefit of 2-3 h duration
# The behavioral effects of acute DPI-289 administered in combination with low-dose L-DOPA (LD1) were assessed. Also higher dose of L-DOPA was also assessed without the addition of DPI-289. The low dose (LD1) was about 10 to 11 mg/kg of L-DOPA which is considered to be sub-optimal in terms of anti-parkinsonian benefit. The dose of DPI-289 was 20 mg/kg and the high dose of L-DOPA was about 30 to 31 mg/kg and considered to an optimal does in terms of anti-parkinsonian benefit but with disabling dyskinesia. The DPI-289 was administered one (1) hour prior to the L-DOPA and start of observation. Activity counts were collected and parkinsonian disability and dyskinesia was assessed via post-hoc analysis of video-recordings by a movement disorder neurologist blinded to treatment.
# On the day before behavioral observations, food was removed overnight, from 5 p.m. On days of behavioral assessment, treatment was administered to the animals in their home cage at approximately 9 a.m. A 6 h period of observation then commenced 1 h after oral dosing.
# The animals were rendered parkinsonian by once daily subcutaneous injection of 0.2 mg/kg MPTP, administered for 8-12 days, until the first appearance of parkinsonism symptoms. After this time, a parkinsonian syndrome reached a moderate to marked level, over approximately 30 days, and stabilized. Additional administrations of MPTP were given to some animals to titrate to similar degrees of parkinsonism in individuals across the group. […] Sixty days after commencing MPTP administration, L-DOPA (25 mg/kg) was administered orally twice daily for at least two months. L-DOPA was given with the decarboxylase inhibitor benserazide (as Madopar™). This treatment leads to the development of motor fluctuations, including dyskinesia.
# [1] = DPI-289 20 mg/kg in combination with low-dose L-DOPA
smiles,measurement,setting,value
"CCN(CC)C(=O)c1ccc(C(c2cccc(O)c2)N2C[C@@H](C)N(Cc3cccc(F)c3)C[C@@H]2C)cc1 (stereo partly drawn) [DPI-289, 4-((alpha-R)-alpha-((2S,5R)-2,5-Dimethyl-4-(3-fluorobenzyl)-1-piperazinyl)-3-hydroxybenzyl)-N,N-diethylbenzamide]",Good ON-time,[1],comparable ‘good’ time as that of the high dose of L-DOPA
same,alertness,[1],improvement in alertness value that mirrored that of the high dose of L-DOPA
same,parkinsonian disability,[1],even and consistent level of fairly mild parkinsonian disability
same,postural instability,[1],reduced postural instability from about 2 to 6 hours after the dosing
same,range of movement impairment,[1],reduced range of movement impairment than low dose L-DOPA alone but this difference did not reach statistical significance
same,motor activity,"DPI-289 20 mg/kg in combination with low-dose L-DOPA (about 10 to 11 mg/kg), cf. high dose L-DOPA",extended activity into four and five hours
same,dyskinesia,"DPI-289 20 mg/kg in combination with low-dose L-DOPA, cf. low-dose L-DOPA alone",no additional dyskinesia
same,BAD ON-time (ON-time with disabling dyskinesia),"DPI-289 20 mg/kg in combination with low-dose L-DOPA, relative to high dose L-DOPA",considerably less of ‘bad’ time
same,bradykinesia,"DPI-289 20 mg/kg in combination with low-dose L-DOPA, three to six hours after dosing",same level of bradykinesia as that of the high dose of L-DOPA
same,duration of effect on parkinsonian disability,DPI-289 20 mg/kg in combination with sub-therapeutic L-DOPA,at least 6 hours
